Drawing on ChEMBL document CHEMBL2429815, “Synthesis of 5-benzyl-4-aryl-octahydro-1H-benzo[b][1,5]diazepin-2-ones as potent antidepressant and antimicrobial agents” (Med Chem Res, 2013), this text covers Time, zone of inhibition and Activity for 13 compounds.

Series [1] relates to Rattus norvegicus. The series can be described thus: Neurotoxicity in rat assessed as minimal motor impairment by measuring coordination time at 100 mg/kg, ip 30 mins prior to testing by rotarod method. Also on record: dose 100 mg/kg, route intraperitoneal. Format: toxicity, organism-based. The note with it: in vivo, 0.5 h.
Series [2] has as its system Bacillus subtilis. Kind of series: Antibacterial activity against Bacillus subtilis ATCC […] assessed as growth inhibition at 10 ug/ml by disc diffusion method. Format: functional. Conditions: read-out: IZ.
The subject of series [3] is Rattus norvegicus. Kind of series: Antidepressant activity in Albino rat assessed as reduction in immobility duration at 20 mg/kg, ip measured during 5 mins by forced swim test relative to control. Format: functional. Also on record: scale not given: the % may be the effect or the level left. Conditions: route intraperitoneal.
Series [4] has as its system Pseudomonas aeruginosa. The series can be described thus: Antibacterial activity against Pseudomonas aeruginosa ATCC 9027 assessed as growth inhibition at 10 ug/ml by disc diffusion method. It counts as functional. Conditions: read-out: IZ. In general terms: A growth-free zone around the sample is the usual read-out of agar diffusion tests.
In series [5] the test system is Staphylococcus aureus. Kind of series: Antibacterial activity against Staphylococcus aureus ATCC 6538 assessed as growth inhibition at 10 ug/ml by disc diffusion method. It counts as functional. Conditions: read-out: IZ.
Series [6] has as its system Escherichia coli. The series can be described thus: Antibacterial activity against Escherichia coli ATCC 35218 assessed as growth inhibition at 10 ug/ml by disc diffusion method. The note with it: read-out: IZ. It counts as functional.

For `O=C1CC(c2ccccc2)N(Cc2ccccc2)C2CCCCC2N1` (configuration not stated), the Time in series [1] worked out at 100.33 s. Moreover, the zone of inhibition at 10 µg/mL in series [2] is 6 mm; in series [4], 6 mm; in series [5] it was 9 mm; in series [6], 5 mm. Further, the Activity in series [3] turned out to be 81.56%.
Regarding `O=C1CC(c2ccccc2Cl)N(Cc2ccccc2)C2CCCCC2N1` (configuration not stated), in series [1], the Time worked out at 95.17 s. Also, the zone of inhibition at 10 µg/mL in series [2] stood at 4 mm; in series [4], 9 mm; in series [5], 8 mm; in series [6] it was 4 mm. Further, in series [3], the Activity amounted to 78.23%.
With `O=C1CC(c2ccccc2Br)N(Cc2ccccc2)C2CCCCC2N1` (configuration not stated), the Time in series [1] is listed as 91.33 s. Further, the zone of inhibition at 10 µg/mL in series [2] was 6 mm; in series [4], 5 mm; in series [5], 15 mm; in series [6] it was 6 mm. The Activity in series [3] was 71.1%.
For `O=C1CC(c2ccc(Br)cc2)N(Cc2ccccc2)C2CCCCC2N1` (configuration not stated), in series [1], the Time was 93.67 s. The zone of inhibition at 10 µg/mL in series [2] came out at 5 mm; in series [4], 8 mm; in series [5], 10 mm; in series [6], 5 mm. For the same compound, the Activity in series [3] is listed as 85.82%.
With `O=C1CC(c2ccc(Cl)cc2)N(Cc2ccccc2)C2CCCCC2N1` (configuration not stated), in series [1], the Time was determined as 90.83 s. Also, the zone of inhibition at 10 µg/mL in series [2] came out at 3 mm; in series [4], 4 mm; in series [5], 10 mm; in series [6] it was 3 mm. In addition, the Activity in series [3] is 88.03%.
As for `COc1ccc(C2CC(=O)NC3CCCCC3N2Cc2ccccc2)cc1OC` (configuration not stated), the Time in series [1] is given as 96.5 s. For the same compound, the zone of inhibition at 10 µg/mL in series [2] was determined as 7 mm; in series [4], 5 mm; in series [5] it was 7 mm; in series [6], 8 mm. Moreover, the Activity in series [3] is reported as 89.03%.
Turning to `COc1ccc(C2CC(=O)NC3CCCCC3N2Cc2ccccc2)cc1` (configuration not stated), in series [1], the Time was 97.83 s. The zone of inhibition at 10 µg/mL in series [2] is 3 mm; in series [4], 7 mm; in series [5] it was 12 mm; in series [6], 5 mm. Also, the Activity in series [3] turned out to be 86.4%.
In the case of `O=C1CC(c2ccc([N+](=O)[O-])cc2)N(Cc2ccccc2)C2CCCCC2N1` (configuration not stated), the Time in series [1] stood at 93.5 s. Moreover, the zone of inhibition at 10 µg/mL in series [2] is 6 mm; in series [4], 9 mm; in series [5], 15 mm; in series [6], 4 mm. For the same compound, in series [3], the Activity is reported as 89.44%.
Regarding `O=C1CC(c2cccc([N+](=O)[O-])c2)N(Cc2ccccc2)C2CCCCC2N1` (configuration not stated), in series [1], the Time was 92.34 s. Further, the zone of inhibition at 10 µg/mL in series [2] was 3 mm; in series [4], 7 mm; in series [5], 10 mm; in series [6], 4 mm. The Activity in series [3] was determined as 85.82%.
Consider `O=C1CC(c2coc3ccccc3c2=O)N(Cc2ccccc2)C2CCCCC2N1` (configuration not stated), for which, in series [1], the Time is listed as 97.17 s. The zone of inhibition at 10 µg/mL amounted to 4 mm in series [2], 5 mm in series [4], 8 mm in series [5] and 5 mm in series [6]. In addition, in series [3], the Activity was 83.56%.
As for `O=C1CC(c2cc3ccccc3nc2Cl)N(Cc2ccccc2)C2CCCCC2N1` (configuration not stated), the Time in series [1] stood at 98.33 s. Further, the zone of inhibition at 10 µg/mL is 6 mm in series [2], 6 mm in series [4], 13 mm in series [5] and 6 mm in series [6]. In series [3], the Activity was 85.27%.
`O=C(O)c1cn(C2CC2)c2cc(N3CCNCC3)c(F)cc2c1=O` [CIPROFLOXACIN]: the zone of inhibition at 10 µg/mL was determined as 9 mm in series [2], 12 mm in series [4], 18 mm in series [5] and 9 mm in series [6].
With `CN(C)CCCN1c2ccccc2CCc2ccc(Cl)cc21` [CLOMIPRAMINE], the Time in series [1] stood at 110.83 s. For the same compound, the Activity in series [3] stood at 92.21%.
